The source of these data is patent US20230399666A1, “METHODS AND COMPOSITIONS FOR THE PRODUCTION OF RHAMNOLIPID” (THE REGENTS OF THE UNIVERSITY OF CALIFORNIA, priority 2022, published 2023).

The subject of one experiment is E. coli. To be noted: literature; cited from earlier work.
In experiment [1] the test system is M. alcaliphilum strain DASS. Nature of the experiment: Rhamnolipid tolerance of the adapted strain after adaptive laboratory evolution. The class given is cell-based, Methylotuvimicrobium alcaliphilum. The procedure:
A course of adaptive laboratory evolution to allow M. alcaliphilum to grow on CH4 in the RLs is followed for four months. During this adaptation, M. alcaliphilum strain DSM19304 (hereafter referred as WT, wild type) is subjected to gradually increasing RL concentration starting from 0.5 g/L to 5 g/L (FIG. 2B). At the end of multiple transfers over a period of four months, an M. alcaliphilum strain tolerant to RLs (strain DASS) is obtained.
M. alcahphilum strain DSM19304 is grown in batch cultures of 10 mL Pi media in 50 mL serum vials under a methane-air atmosphere at 30° C. with agitation at 200 rpm. To adapt the cells to grow in the presence of RLs, 0.5 g/L RL (90% mono-RL, Millipore Sigma) is supplemented to the starting cell culture. The concentration of RLs is increased gradually and stepwise (1, 1.5, 2, 3, 4 and 5 g/L) to achieve a final strain of M. alcahphilum tolerant to 5 g/L RL. A 0.1% inoculum is manually transferred from a growing batch culture to a fresh culture in 48-60h. The RL concentration in the media is increased to next higher concentration when the OD 600 nm at 48 h of the growing batch culture with RL reached similar OD600 to WT (>1.0) at the end of 48 h. After the adaptation, single colonies of M. alcahphilum strain DASS are isolated on Pi media agar plates. Multiple single colony isolates are confirmed to be M. alcahphilum via 16S rRNA sequencing to rule out possibility of co-contaminants. No differences are observed in growth of multiple single colonies that are tested, one clone is selected for further analysis and plasmid transformation.

The subject of experiment [2] is M. alcaliphilum strain DSM19304 (WT). Nature of the experiment: Inhibitory effect of rhamnolipids on growth (OD600) of M. alcaliphilum wild type on CH4. The class given is cell-based, Methylotuvimicrobium alcaliphilum. From the text:
M. alcaliphilum converts methane by sequential oxidation to formaldehyde, which enters the central carbon metabolism through the RUMP pathway^39. M. alcaliphilum produces high amounts of glycogen, sucrose and ectoine with smaller amounts of lactate, formate, succinate and no known reports of RLs^38,40,41. Rhamnolipids are used as biocontrol/anti-microbial agents, and increasing rhamnolipid concentrations are found to negatively impact growth of Gram-negative and Gram-positive heterologous hosts, E. coli, Bacillus subtilis and Corynebacterium glutamicum^23. Therefore, M. alcaliphilum growth is tested in the presence of RLs. […] The RL toxicity to M. alcaliphilum is much higher than reported concentrations in other Gram-negative host like E. coli (>90 g/L). The toxicity of RLs to M. alcaliphilum required adaptive evolution to permit the strain to produce rhamnolipids.
(§1) Luria-Bertani (LB) broth and agar plates are routinely used to culture E. coli cells at 37° C. For routine cultivation of M. alcahphilum strain WT (wild type) and its derivatives, Pi (π) media with 3% (w/v) NaCl is used as described in Collins and Kaluzhnaya.^56 When needed, kanamycin (Kan) is added to the growth medium at 100 μg/mL for ts. alcahphilum and 50 μg/mL for E. coli cultures. Ampicillin is added to the growth medium at 100 μg/mL. M alcahphilum cell cultures are grown as batch cultures, either 4 mL culture in 20 mL anaerobic glass tubes or 10 mL culture in 50 mL serum vials, under a methane (99.9%; Airgas): air atmosphere (1:1). Cell cultures are incubated at 30° shaking at 220 rpm. Cell growth is measured as optical density (OD 600 nm) using Spectronic 200E spectroscope at time points mentioned in results and discussion. Single colony isolates and transformant selections are performed on Pi media agar plates incubated in anaerobic jars (Oxoid; Remel) under a methane-air atmosphere (1:1). For M. alcahphilum (pDA17) induction, antimicrobial activity of Ptet inducer, anhydrotetracycline (aTC) is first evaluated (FIG. 7) on methanol, it is observed that aTC antimicrobial effect on M. alcahphilum is apparent at concentration >2.5 μg/mL. Thus, based on the observation and previous report 33 , concentration of 1 μg/mL aTC is used for optimal gene expression. M. alcahphilum (pDA17) cultures are induced with anhydrotetracycline (1 μg/mL) at time of inoculation^33.

The next experiment concerns M. alcahphilum. As to the kind of experiment: Antimicrobial activity of Ptet inducer anhydrotetracycline, evaluated on methanol. The class given is cell-based, Methylotuvimicrobium alcaliphilum. Here is the method:
as §1, with “M. alcahphilum (pDA17) cultures are induced with anhydrotetracycline (1 μg/mL) at time of inoculation^33.” left out

The term MIC denotes the smallest concentration in the dilution series that meets the test's criterion for growth inhibition.

For the compound rhamnolipids, the reported toxic concentration with E. coli is recorded as greater than 90 g/L. The “fold higher concentration in which the adapted strain grows compared to parent strain” value in experiment [1] (DASS vs parent strain) is recorded as 10 fold. In experiment [1] (evolved strain DASS, grown on CH4, listed as RL), this compound had a tolerated rhamnolipid concentration of 5 g/L. Also, the “growth with RL in the absence of CH4 (RL as carbon source)” value in experiment [1] (strain DASS, 5 g/L RL, no CH4) was “did not promote growth”. For the same compound, the growth inhibition entry in experiment [2] (1 g/L RL amendment, 36 hours of culture) is on record as “almost complete inhibition”. In addition, the “concentration inhibitory to growth” value in experiment [2] (M. alcaliphilum DSM19304) is reported as less than 0.05 g/L. For the same compound, in experiment [2] (medium amended with 0.1 g/L RL, 36 hours of culture), the “reduction in final optical density” value was determined as 50%. Moreover, the MIC in experiment [2] (parent strain DSM19304) came out at 0.5 g/L. Besides, in experiment [2] (strain DSM19304, surfactant effects), the “concentration of rhamnolipids that cannot be tolerated” value was 0.5 g/L.

In the case of `Cc1c2c(c(O)c3c(O)cccc13)C(=O)[C@]1(O)C(=O)C(C(N)=O)=C(O)[C@@H](N(C)C)[C@@H]1C2` [aTC, anhydrotetracycline], the “concentration at which antimicrobial effect is apparent” value in the experiment with M. alcahphilum is greater than 2.5 µg/mL.
